From paper PMC7356228, “Alvaxanthone, a Thymidylate Synthase Inhibitor with Nematocidal and Tumoricidal Activities” (Molecules, 2020)
Like-named read-outs stand apart in the source and are kept apart here.

Assays:
[1] = molecular target: T1, CeTS (Caenorhabditis elegans, UniProt Q9Y052); test: Inhibition of TS-catalyzed reaction (tritium release from [5-3H]dUMP); format: biochemical, C. elegans
T1 sequence (Q9Y052 1-315): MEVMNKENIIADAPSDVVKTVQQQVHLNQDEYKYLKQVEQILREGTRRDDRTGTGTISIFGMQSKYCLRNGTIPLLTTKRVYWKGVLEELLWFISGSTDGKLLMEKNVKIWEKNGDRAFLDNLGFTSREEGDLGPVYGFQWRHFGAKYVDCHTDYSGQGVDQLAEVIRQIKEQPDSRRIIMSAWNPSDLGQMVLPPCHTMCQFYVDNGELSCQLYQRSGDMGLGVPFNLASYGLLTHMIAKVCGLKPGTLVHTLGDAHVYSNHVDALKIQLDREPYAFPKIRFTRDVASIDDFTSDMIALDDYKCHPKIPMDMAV
Source text: (§1) The recombinant human, rat, mouse, T. spiralis and C. elegans TS proteins were produced, purified and separated into phosphorylated and non-phosphorylated fraction, as previously described. TS activity was monitored, following tritium release from [5-^3H]dUMP, and its inhibition studied as earlier reported.

[2] = molecular target: T2, hTS (Homo sapiens, UniProt P04818); test: as above; format: biochemical; settings: for IC50: read-out: IC50 Assessment
T2 construct: made in house
Source text: as §1

[3] = molecular target: T3, mTS (Mus musculus, UniProt P07607); test: as above; format: biochemical
T3 construct: made in house
Source text: as §1

[4] = molecular target: TsTS (Trichinella spiralis, UniProt Q9NDD3); test: as above; format: biochemical, T. spiralis; settings: 20 µM dUMP; for remaining activity at 1000 µM: compound 1000 µM; for IC50: IC50 Assessment; for remaining activity at 100 µM: compound 100 µM
Source text: as §1

[5] = tested on: C. elegans; test: Toxicity to C. elegans (population growth); settings: in vivo
Description: C. elegans was maintained as previously described. The effect of the compounds studied on C. elegans population growth was determined as earlier presented.

[6] = tested on: BJ normal human skin fibroblasts; test: Cytotoxicity, neutral red uptake (NR) assay; format: cell-based; settings: Homo sapiens, Skin fibroblast
Description: (§2) Biological effect of alvaxanthone and rheediaxanthone B on normal (BJ) and cancer cells (U-118 MG and SCC-15) was estimated using two viability assays, the neutral red uptake (NR) and tetrazolium salts reduction (XTT) assays.
(§3) Human glioblastoma cells U-118 MG (ATCC® HTB-15), human squamous carcinoma cells SCC-15 (ATCC® CRL-1623), and normal human skin fibroblasts (ATCC® CRL-2522) were grown, their morphology checked, and number and viability estimated as earlier presented.
(§4) Influence of selected compounds on cells was tested by performing the cytotoxicity (NR and XTT) assays, proliferation assay, cell adhesion assay, cell migration assay, determination of intracellular ATP level, and apoptosis assay as previously reported.

[7] = tested on: U-118 MG human glioblastoma cells; test: Cytotoxicity, neutral red uptake (NR) assay; format: cell-based
Description: as §2, §3, §4

[8] = tested on: SCC-15 human squamous carcinoma cells; test: Cytotoxicity, neutral red uptake (NR) assay; format: cell-based; settings: Homo sapiens
Description: as §2, §3, §4

[9] = 20 µM dUMP, 250 µM meTHF, read-out: IC50 Assessment
[10] = compound 1000 µM, 20 µM dUMP, 250 µM meTHF, read-out: % Remaining Activity
[11] = compound 100 µM, 20 µM dUMP, 250 µM meTHF, read-out: % Remaining Activity
[12] = neutral red assay, BJ, read-out: IC50
[13] = neutral red assay, U-118 MG, read-out: IC50
[14] = SCC-15, neutral red assay, read-out: IC50
[15] = 20 µM dUMP, 50 µM meTHF, read-out: IC50 Assessment
[16] = compound 100 µM, 20 µM dUMP, 50 µM meTHF, read-out: % Remaining Activity
[17] = compound 1000 µM, 20 µM dUMP, 50 µM meTHF, read-out: % Remaining Activity
[18] = IC50 Assessment, 20 µM dUMP, 250 µM meTHF
[19] = compound 10 µM, 20 µM dUMP, 250 µM meTHF
[20] = compound 667 µM, 20 µM dUMP, 250 µM meTHF
[21] = compound 50 µM, 20 µM dUMP, 250 µM meTHF
[22] = compound 500 µM, 20 µM dUMP, 250 µM meTHF

T3 sequence (P07607 whole entry): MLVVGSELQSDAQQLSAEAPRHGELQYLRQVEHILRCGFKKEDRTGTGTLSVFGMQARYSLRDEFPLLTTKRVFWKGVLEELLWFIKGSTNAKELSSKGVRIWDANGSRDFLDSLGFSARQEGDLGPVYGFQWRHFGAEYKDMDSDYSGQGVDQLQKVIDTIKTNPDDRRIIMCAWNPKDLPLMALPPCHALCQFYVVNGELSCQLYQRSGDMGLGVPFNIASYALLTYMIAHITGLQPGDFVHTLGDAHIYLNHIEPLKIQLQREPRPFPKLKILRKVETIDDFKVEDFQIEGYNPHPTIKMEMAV
Sequence of TsTS (Q9NDD3 entry or part of it): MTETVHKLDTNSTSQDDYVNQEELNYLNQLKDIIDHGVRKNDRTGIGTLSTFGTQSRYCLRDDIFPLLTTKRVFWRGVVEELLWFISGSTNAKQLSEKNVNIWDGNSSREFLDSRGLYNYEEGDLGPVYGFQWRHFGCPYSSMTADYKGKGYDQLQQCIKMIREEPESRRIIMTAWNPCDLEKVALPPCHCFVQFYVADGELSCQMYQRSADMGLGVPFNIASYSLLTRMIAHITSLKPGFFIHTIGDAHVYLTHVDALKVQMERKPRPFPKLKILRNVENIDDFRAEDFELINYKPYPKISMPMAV
T2 sequence (P04818 whole entry): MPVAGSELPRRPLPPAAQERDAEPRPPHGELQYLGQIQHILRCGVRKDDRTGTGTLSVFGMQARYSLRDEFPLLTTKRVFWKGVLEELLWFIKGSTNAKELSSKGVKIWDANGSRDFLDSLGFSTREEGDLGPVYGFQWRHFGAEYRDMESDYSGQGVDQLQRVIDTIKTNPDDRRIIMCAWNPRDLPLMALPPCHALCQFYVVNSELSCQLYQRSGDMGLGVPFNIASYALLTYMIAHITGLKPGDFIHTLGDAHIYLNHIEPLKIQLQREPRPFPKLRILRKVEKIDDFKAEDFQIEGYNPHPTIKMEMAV

Row | Compound | IC50 [1, 9] | remaining activity at 1000 µM [1, 10] | remaining activity at 1000 µM [2, 10] | remaining activity at 1000 µM [3, 10] | remaining activity at 1000 µM ([4]; 250 µM meTHF) | remaining activity at 100 µM [1, 11] | remaining activity at 100 µM [2, 11] | IC50 ([4]; 250 µM meTHF) | other results
1 | COc1cc(/C=C/C(=O)O[C@H]2[C@H](O[C@@H]3O[C@@H](C)[C@H](O)[C@@H](O)[C@H]3O)[C@@H](O)[C@H](OCCc3ccc(O)c(O)c3)O[C@@H]2CO)ccc1O [Leucosceptoside A (13), Leucosceptoside A] | > 1000 µM | 83% | 66% | 77% | > 100% |  |  |  | IC50 ([2]; 20 µM dUMP, 250 µM meTHF): > 1000 µM; IC50 [3, 9]: > 1000 µM
2 | O=C(OCC1=C[C@@H](O)[C@@H]2C=CO[C@@H](O[C@@H]3O[C@H](CO)[C@@H](O)[C@H](O)[C@H]3O)[C@H]12)c1ccc(O)cc1 [Agnuside (8), Agnuside] | > 100 µM | 36% | 47% | 72% | 63% | 100% | 90% | > 1000 µM | IC50 [3, 9]: > 1000 µM
3 | O=C(/C=C/c1ccc(O)c(O)c1)O[C@@H]1C[C@](O)(C(=O)O)C[C@@H](O)[C@H]1O [Chlorogenic acid (3), Chlorogenic acid] | > 1000 µM | 82% | 76% | 83% | 94% |  |  | > 1000 µM | IC50 ([2]; 20 µM dUMP, 250 µM meTHF): > 1000 µM; IC50 [3, 9]: > 1000 µM
4 | CC1Oc2c(c3c(c4oc5c(O)c(O)ccc5c(=O)c24)C(C)(C)C(C)O3)C1(C)C (stereo not drawn) [Rheediaxanthone C (18), Rheediaxanthone C] |  |  |  |  |  |  |  |  | toxicity for the worm [5]: does not show toxicity for the worm; IC50 [6, 12]: 5.95 µM; IC50 [7, 13]: 18.3 µM; IC50 [8, 14]: 11 µM; IC50 [1, 15]: > 100 µM; remaining activity at 100 µM [1, 16]: 71%; IC50 ([2]; 20 µM dUMP, 50 µM meTHF): > 100 µM; remaining activity at 100 µM [2, 16]: 57%; remaining activity at 10 µM ([3]; compound 10 µM, 20 µM dUMP, 50 µM meTHF): 77%; remaining activity at 100 µM [3, 16]: 39%; IC50 ([4]; 50 µM meTHF): > 100 µM; remaining activity at 100 µM ([4]; 50 µM meTHF): 73%
5 | COc1c(O)cc2oc(-c3ccccc3)c(O)c(=O)c2c1O [Alnusin (12), Alnusin] | > 1000 µM | 80% | 30% | > 100% | > 100% |  | 85% |  | 
6 | CC(=O)Oc1c(O)cc(-c2oc3cc(O)cc(O)c3c(=O)c2O)cc1O [Myricetin-4′-OAc (7), Myricetin-4′-OAc] | > 100 µM | 28% | 31% | 49% | 66% | 69% | 56% | > 1000 µM | IC50 ([2]; 20 µM dUMP, 250 µM meTHF): > 1000 µM; remaining activity at 100 µM [3, 11]: 61%
7 | CC(C)=CCc1c(O)ccc2c1OC(c1ccccc1)CC2=O (racemic) [(±)-7-Hydro-xy-8-C-prenyl flavanone] | > 100 µM | 3% | 7% | 2% | 25% | 65% | 74% | > 100 µM | remaining activity at 100 µM [3, 11]: 71%; remaining activity at 100 µM ([4]; 250 µM meTHF): 90%
8 | COc1ccc2oc3cccc(O)c3c(=O)c2c1 [1-OH-7-OMe-Xanthone (19), 1-OH-7-OMe-Xanthone] |  |  |  |  |  |  |  |  | IC50 [6, 12]: > 40 µM; IC50 [7, 13]: 40 µM; IC50 [8, 14]: > 40 µM; IC50 [1, 15]: > 1000 µM; remaining activity at 1000 µM [1, 17]: 81%; IC50 ([2]; 20 µM dUMP, 50 µM meTHF): > 1000 µM; remaining activity at 1000 µM [2, 17]: 100%; IC50 [3, 15]: > 1000 µM; remaining activity at 1000 µM [3, 17]: 94%; IC50 ([4]; 50 µM meTHF): > 1000 µM; remaining activity at 1000 µM ([4]; 50 µM meTHF): 89%
9 | CC1=C[C@]2(O)C(=O)[C@H](C)C[C@@H]3[C@H](CC[C@](C)(O)C[C@H]2C1=O)C3(C)C [Jatrowediol (10), Jatrowediol] |  |  |  |  | 95% |  |  | > 1000 µM | remaining activity at 1000 µM [1]: 77%; IC50 [1, 18]: > 1000 µM; remaining activity at 100 µM [2]: 100%; remaining activity at 1000 µM [2]: 43%; remaining activity at 1000 µM [3]: 80%; IC50 [3, 18]: > 1000 µM
10 | CC12CCC3C(C1)c1c(cc(O)c(C(=O)c4ccccc4)c1OC3(C)C)O2 (stereo not drawn) [Clusiacitran A (9), Clusiacitran A] |  |  | 47% | 62% | 95% |  | 89% | > 1000 µM | remaining activity at 100 µM [1]: 88%; remaining activity at 1000 µM [1]: 44%; IC50 [1, 18]: > 100 µM; IC50 [3, 18]: > 1000 µM
11 | COc1c(O)cc2oc3ccccc3c(=O)c2c1O [1,3-OH-2-OMe-Xanthone (16), 1,3-OH-2-OMe-Xanthone] |  |  |  |  | 23% |  |  | > 100 µM | IC50 [6]: > 40 µM; IC50 ([7]; U-118-MG): > 40 µM; IC50 [8]: > 40 µM; remaining activity at 1000 µM [1]: 65%; IC50 [1, 18]: > 1000 µM; remaining activity at 100 µM [2]: 54%; remaining activity at 1000 µM [2]: 27%; remaining activity at 100 µM [3]: 67%; remaining activity at 1000 µM [3]: 32%; IC50 ([4]; 50 µM meTHF): > 100 µM; remaining activity at 100 µM ([4]; 50 µM meTHF): 82%; remaining activity at 100 µM ([4]; 250 µM meTHF): 92%; remaining activity at 1000 µM ([4]; 50 µM meTHF): 32%
12 | CC1(C)CCc2cc3c(cc2O1)OC(c1ccccc1)CC3=O (stereo not drawn) [6-Chromane-O-7-flavanone (11), 6-Chromane-O-7-flavanone] |  |  |  | 10% | 85% | 24% | 37% | > 1000 µM | remaining activity at 10 µM [1, 19]: 100%; remaining activity at 10 µM [2, 19]: 100%; remaining activity at 100 µM [3, 11]: 91%
13 | COc1c(C2(O)COc3cc(O)cc(O)c3C2=O)ccc2c1C=CC(C)(C)O2 (stereo not drawn) [Sophoronol (5), Sophoronol] | > 100 µM | 8% | 8% | 10% | 35% | 77% | 75% | > 100 µM | remaining activity at 100 µM [3, 11]: 75%; remaining activity at 100 µM ([4]; 250 µM meTHF): 74%
14 | O=C(CCc1ccc(O)cc1)c1c(O)cc(O)cc1O [Phloretin (4), Phloretin] | > 100 µM | 48% | 31% | 45% | 61% | 82% | 86% | > 1000 µM | remaining activity at 100 µM [3, 11]: 78%
15 | O=C1c2c(O)cccc2C([C@@H]2O[C@H](CO)[C@@H](O)[C@H](O)[C@H]2O)c2cc(CO)cc(O)c21 (stereo partly drawn) [Aloin (2), Aloin] | > 100 µM | 36% | 49% | 95% | 93% | 83% | 94% | > 1000 µM | IC50 [3, 9]: > 1000 µM
16 | COC(=O)/C=C/C(C)=C\C=C\C(C)=C\C=C\C=C(C)\C=C\C=C(C)\C=C\C(=O)O [Bixin (6), Bixin] |  |  |  |  |  |  |  |  | remaining activity at 67 µM ([1]; compound 67 µM, 20 µM dUMP, 250 µM meTHF): 93%; remaining activity at 667 µM [1, 20]: 46%; remaining activity at 667 µM ([2]; compound 667 µM (highest obtained concentration), 20 µM dUMP, 250 µM meTHF): > 100%; IC50 [3, 9]: > 667 µM; remaining activity at 667 µM [3, 20]: 73%; remaining activity at 67 µM ([4]; compound 67 µM, 250 µM meTHF): 76%; remaining activity at 667 µM ([4]; compound 667 µM, 250 µM meTHF): 47%
17 | COc1cc(/C=C/C(=O)CC(=O)/C=C/c2ccc(O)c(OC)c2)ccc1O [Curcumin (1), Curcumin] |  |  |  |  |  |  |  | > 500 µM | remaining activity at 50 µM [1, 21]: 84%; remaining activity at 500 µM [1, 22]: 30%; remaining activity at 50 µM [2, 21]: 86%; remaining activity at 500 µM [2, 22]: 20%; remaining activity at 50 µM [3, 21]: 83%; remaining activity at 500 µM [3, 22]: 37%; remaining activity at 500 µM ([4]; compound 500 µM, 250 µM meTHF): 73%
